{"source": "patent US20030158250A1", "about": "“Agents correcting gene expression regulatory error” (priority 2000, published 2003)", "key": {"interleukin-10 (IL-10)": {"tested_on": "interleukin-10 (IL-10)", "test": "LPS-induced IL-10 production in RAW 264.7 cells (ELISA)", "type": "cell-based", "details": "final concentration 20 μM, 5 hours, then LPS 18 hours, IL-10 in culture supernatant by ELISA", "protocol": "RAW 264.7 cells (ATCC TIB 71) were suspended in a Dulbecco's modified Eagle's medium (manufactured by Bio Whittaker; 12-604F) containing 10% fetal bovine serum (manufactured by Gibco), so as to have a concentration of 3×10^5 cells/ml. The cell suspension was added to each well of a 48-well microtiter plate in a volume of 0.5 ml each. The cells were cultured at 37° C. in the presence of 5% CO2 gas overnight. To each well was added 5 μl of a 2 mM DGE aqueous solution (final concentration: 20 μM), and the cells were cultured for additional 5 hours. Thereafter, 5 μl of a 100 μg/ml lipopolysaccharide (LPS, manufactured by Sigma, L-2012) aqueous solution was added thereto, and the cells were cultured for 18 hours, and thereafter the culture supernatant was recovered. The content of the interleukin-10 (IL-10) in the culture supernatant was assayed by the enzyme immuno-sandwich assay. Here, the group with no addition of DGE and LPS aqueous solution (control) was set as a negative control, and the group with addition of LPS aqueous solution (control+LPS) alone was set as a positive control. In addition, all of the assays were carried out twice."}, "HO1 protein": {"tested_on": "HO1 protein", "test": "HO1 protein induction in RAW 264.7 cells (Western blot)", "type": "cell-based", "parameters": "key to Intensity of Bands of HO1 Protein: those showing no bands are indicated by “−,”; the intensities of the bands are indicated by +−, +, ++ in the ascending order of the intensities of the bands; the intensities of the bands are indicated by +−, +, ++ in the ascending order of the intensities of the bands; the intensities of the bands are indicated by +−, +, ++ in the ascending order of the intensities of the bands", "details": "15 hours", "protocol": "RAW 264.7 cells (ATCC TIB 71) were suspended in a Dulbecco's modified Eagle's medium (manufactured by Bio Whittaker; 12-604F) containing 10% fetal bovine serum (manufactured by Gibco), so as to have a concentration of 3×10^5 cells/ml. The cell suspension was added to each well of a 6-well microtiter plate in a volume of 5 ml each. The cells were cultured at 37° C. in the presence of 5% CO2 gas overnight. To each well was added 50 μl of 4 mM, 2 mM or 1 mM DGE aqueous solution (each of final concentrations: 40 μM, 20 μM or 10 μM), and the cells were cultured for 15 hours. […] The cells were harvested by peeling off the cells from the plate with a scraper. The harvested cells were suspended in 0.1 M Tris-HCl buffer (pH 7.5) containing 0.05 mM pepstatin (manufactured by Sigma, P5318), 0.2 mM leupeptin (manufactured by Sigma, L2884), 1 mM phenylmethylsulfonyl fluoride (manufactured by nakalai tesque, 273-27), 10 mM disodium dihydrogenethylenediaminetetraacetate and 0.1% Triton X-100, and subjected to freezing and thawing once. Thereafter, the supernatant obtained by centrifugation was used as a protein fraction. The protein content in the protein fraction was assayed by Micro BCA Protein Assay Reagent (one manufactured by Pierce sold by Takara Shuzo Co., Ltd., P7411). Each of the resulting protein fraction samples was mixed with an equal volume of 0.125 M Tris-HCl buffer (pH 6.8) containing 4% sodium lauryl sulfate (SDS), 2% 2-mercaptoethanol,\n0.001% Bromophenol Blue and 20% glycerol, and the mixture was treated at 100° C. for 5 minutes. A mixture containing a protein in an amount of 10 μg or so was loaded on 12.5% SDS-polyacrylamide gel, and electrophoresed with a constant current of 20 mA. In a blotting buffer containing 48 mM Tris, 39 mM glycine, 20% methanol, 0.0375% SDS, the gel after the electrophoresis was transferred to a PDVF membrane (manufactured by Millipore Corporation, IPVHOOO 10) in accordance with the attached protocol, using transblot SD cell semi-drive blotting device (manufactured by BioRad), at a constant voltage of 15 V for 25 minutes. The transferred PVDF membrane was blocked overnight in a Block Ace (manufactured by DAINIPPON PHARMACEUTICAL CO., LTD., UK-B25) solution at 4° C. The blocked membrane was washed for 15 minutes thrice with phosphate-buffered physiological saline containing 0.1% Tween 20 under gentle shaking. Thereafter, the membrane was subjected to the reaction under gentle shaking in phosphate-buffered physiological saline containing 10% Block Ace with a 200 ng/ml anti-HOl antibody (N-19, manufactured by Santa Cruz, sc-7696) and 0.1% Tween 20 at room temperature for 1 hour, and was washed for 15 minutes thrice with phosphate-buffered physiological saline containing 0.1% Tween 20 under gentle shaking. Next, the membrane was subjected to the reaction under gentle shaking in phosphate-buffered physiological saline with 10% Block Ace with 0.1% peroxidase-conjugated rabbit anti-goat IgG (H+L) antibody (manufactured by Zymed, 61-1620) and 0.1% Tween 20 at room temperature for 1 hour, and was washed for 15 minutes five times with phosphate-buffered physiological saline containing 0.1% Tween 20 under gentle shaking. Subsequently, a PVDF membrane was stained by using Western blot Chemiluminescence Reagent Plus (one manufactured by NEN Life Science Products sold by Daiichikagaku, NEL103) in accordance with the attached protocol, and sensitized on an X-ray film (manufactured by Kodak, CAT 1651454). The sensitized film was developed with FPM800 (manufactured by Fuji Photo Film Co., Ltd.).\nAs a result, there could be confirmed a band ascribed to HO1 protein in the group with addition of DGE. […] In the table, + symbols were given in accordance with the intensity of the band for HO1 protein. In other words, in Table 3, those showing no bands are indicated by “−,” and the intensities of the bands are indicated by +−, +, ++ in the ascending order of the intensities of the bands."}}}
{"smiles": "O=C1C=CC(CO)OC1O", "note": "[DGE, L-glycero-1,5-epoxy-1αβ,6-dihydroxy-cis-hex-3-en-2-one]", "values": [{"measurement": "inhibition of LPS-induced IL-10 production", "setting": "interleukin-10 (IL-10)", "value": "inhibition of LPS-induced IL-10 production was found"}, {"measurement": "induction action for HO production (band ascribed to HO1 protein)", "setting": "HO1 protein; DGE at 10 to 40 μM", "value": "DGE concentration-dependent"}, {"measurement": "Intensity of Bands of HO1 Protein", "setting": "HO1 protein; final concentration 10 μM", "value": "+−"}, {"measurement": "Intensity of Bands of HO1 Protein", "setting": "HO1 protein; final concentration 20 μM", "value": "+"}, {"measurement": "Intensity of Bands of HO1 Protein", "setting": "HO1 protein; final concentration 40 μM", "value": "++"}]}
